# PMC5327789 (Journal of natural products, 2016)
# Assays:
# [1] = system: P. falciparum strain Dd2 (chloroquine-resistant); assay: P. falciparum in vitro growth inhibition assay; assay type: cell-based, Plasmodium falciparum; settings: for antiplasmodial activity in words: highest concentration tested 25 μM
# [2] = system: WI-38 cell line (normal embryonic lung tissue); assay type: cell-based
compound,measurement,setting,value
"C=C1[C@@H]2C[C@@H]2[C@]2(C)[C@@H]3CC4=C5[C@H](/C(=C(\C)C(=O)OC)C(=O)[C@H](O)[C@@]5(C)[C@@H]5C[C@H]45)[C@@]34OC(=O)C(C)=C4C[C@@H]12 [Compound 32, shizukaol A]",antiplasmodial activity in words,[1],micromolar range
"COC(=O)/C(C)=C1\C(=O)[C@H](O)[C@]2(C)C3=C(C[C@@H]4[C@]5(OC(=O)C(C)=C5C[C@H]5[C@H](COC(C)=O)[C@H]6C[C@H]6[C@]45C)[C@H]31)[C@H]1C[C@H]12 [Compound 25, shizukaol E]",antiplasmodial activity in words,[1],micromolar range
"COC(=O)/C(C)=C1/C(=O)[C@H](O)[C@]2(C)C3=C(C[C@@H]4[C@]5(OC(=O)C6=C5C[C@H]5[C@](O)(COC(=O)/C=C(\C)COC(=O)CCC(=O)OC6)[C@H]6C[C@H]6[C@]45C)[C@H]31)[C@H]1C[C@H]12 [Compound 7, Fortunilide G]",decrease of mammalian cytotoxicity compared with counterpart,"[2]; human, 24 h",5 fold
"COC(=O)CCC(=O)OC/C(C)=C/C(=O)OC[C@]1(O)[C@H]2C[C@H]2[C@]2(C)[C@@H]3C[C@@]4(OO)C5=C(/C(=C(\C)C(=O)OC)C(=O)[C@H](O)[C@@]5(C)[C@@H]5C[C@@H]54)[C@@]34OC(=O)C(CO)=C4C[C@@H]12 [Compound 4, Fortunilide D]",increase of toxicity toward mammalian cells compared with counterpart,"[2]; human, 24 h",6 fold
"COC(=O)/C(C)=C1\C(=O)[C@H](O)[C@]2(C)C3=C(C[C@@H]4[C@]5(OC(=O)C6=C5C[C@H]5[C@](O)(COC(=O)/C(C)=C/COC(=O)[C@@H](O)CC(=O)OC6)[C@H]6C[C@H]6[C@]45C)[C@H]31)[C@H]1C[C@H]12 [Compound 29, shizukaol G]",increase of toxicity toward mammalian cells compared with counterpart,"[2]; human, 24 h",~ 10 fold
"C/C=C(\C)C(=O)OC[C@]1(O)[C@H]2C[C@H]2[C@]2(C)[C@@H]3C[C@@]4(O)C5=C(/C(=C(\C)C(=O)OC)C(=O)[C@H](O)[C@@]5(C)[C@@H]5C[C@@H]54)[C@@]34OC(=O)C(COC(C)=O)=C4C[C@@H]12 [Compound 27, sarcandrolide E]",antiplasmodial activity in words,[1],inactive
shizukaol C [Compound 17],IC50,"[2]; read-out: WI-38 IC50, WI-38 cell line, 24 h incubation",0.77 µM
same,IC50,"[1]; read-out: P. falciparum IC50, Table 6",0.021 µM
